Article PMC10819809 (Microorganisms, 2024)
Converted amounts (≈) assume the structure as drawn. Square brackets hold non-standard residues; d marks the D form. Peptide text beside a SMILES is read from it.

What was measured:
MTB = conditions: peptide 14D combined with another peptide; clinical trial, 255 samples from adults, routine test; cited from earlier work
M. tuberculosis H37Rv [1] = assay type: cell-based, Mycobacterium tuberculosis; parameters: key to Cord Formation at 10 µg/mL, H37Rv: Cord formation like wild type (without peptide) was classified as “normal”; no cord formation was detected, and they were classified as “not observed”; conditions: for Cord Formation at 10 µg/mL, H37Rv: 10 µg/mL peptide, Nikon Ni-E microscope
M. tuberculosis H37Rv [2] = conditions: microdilution broth, 96-well, 2 × 10^5 CFU/mL, 37 °C 14 days, resazurin 48 h; conducted twice with three technical replicates each
MDR-TB = assay type: cell-based, Mycobacterium tuberculosis; parameters: key: Cord formation like wild type (without peptide) was classified as “normal”; no cord formation was detected, and they were classified as “not observed”; conditions: 10 µg/mL peptide; Nikon Ni-E microscope
M. tuberculosis = assay type: cell-based, Mycobacterium tuberculosis; conditions: for TTP Values at Different Peptide Concentrations, 30 µg/mL: purified peptide 30 µg/mL, MGIT, BD BACTEC MGIT 320, TB alone 12 d 4 h

| Molecule | increase in sample positivity rates (MTB) [%] | Cord Formation at 10 µg/mL, H37Rv (M. tuberculosis H37Rv [1]) | effect on cord formation (M. tuberculosis H37Rv [1]; 1 and 10 µg/mL peptide) | MIC in µg/mL, H37Rv (M. tuberculosis H37Rv [2]) [µg/mL] | Cord Formation at 10 µg/mL, MDR-TB (MDR-TB) | TTP Values at Different Peptide Concentrations, 30 µg/mL (M. tuberculosis) | prolongation of TTP compared to the wild type (M. tuberculosis; 3 µg/mL purified peptide) | reduction of TTP compared to the wild-type peptide 14D (M. tuberculosis; 3 µg/mL purified peptide) [h] | reduction of TTP relative to the untreated control (M. tuberculosis; 3 µg/mL purified peptide) [h] |
| --- | --- | --- | --- | --- | --- | --- | --- | --- | --- |
| CC[C@@H](C)[C@@H](NC(=O)[C@@H](CCCCN)NC(=O)[C@H](N)Cc1c[nH]c2ccccc12)C(=O)N[C@@H](C(=O)N[C@H](Cc1ccccc1)C(=O)N[C@H](Cc1c[nH]c2ccccc12)C(=O)N[C@H](Cc1c[nH]c2ccccc12)C(=O)N[C@H](CCCNC(=N)N)C(=O)N[C@H](CCCNC(=N)N)C(N)=O)C(C)C [peptide 14D] (H-[dW][dK][dI][dV][dF][dW][dW][dR][dR]-NH2) | 46 | not observed | diminish cord formation | >50 | not observed | – | – | – | – |
| CC[C@@H](C)[C@@H](NC(=O)[C@@H](CCCCN)NC(=O)[C@H](N)Cc1c[nH]c2ccccc12)C(=O)N[C@H](CO)C(=O)N[C@H](Cc1ccccc1)C(=O)N[C@H](Cc1c[nH]c2ccccc12)C(=O)N[C@H](Cc1c[nH]c2ccccc12)C(=O)N[C@H](CCCNC(=N)N)C(=O)N[C@H](CCCNC(=N)N)C(N)=O [wkisfwwrr] (H-[dW][dK][dI][dS][dF][dW][dW][dR][dR]-NH2; N-terminus assumed) | – | normal | – | 20 (≈ 14.7 µM) | normal | – | – | – | – |
| CC[C@@H](C)[C@@H](NC(=O)[C@@H](CCCCN)NC(=O)[C@H](N)Cc1c[nH]c2ccccc12)C(=O)N[C@@H](C(=O)N[C@H](Cc1ccccc1)C(=O)NCC(=O)N[C@H](Cc1c[nH]c2ccccc12)C(=O)N[C@H](CCCNC(=N)N)C(=O)N[C@H](CCCNC(=N)N)C(N)=O)C(C)C [wkivfGwrr] (H-[dW][dK][dI][dV][dF]G[dW][dR][dR]-NH2; N-terminus assumed) | – | normal | – | 20 (≈ 16 µM) | normal | neg (55 d) | – | – | – |
| CC[C@@H](C)[C@@H](NC(=O)[C@@H](CCCCN)NC(=O)[C@H](N)Cc1c[nH]c2ccccc12)C(=O)N[C@@H](C(=O)N[C@H](Cc1ccccc1)C(=O)N[C@H](CC(=O)O)C(=O)N[C@H](Cc1c[nH]c2ccccc12)C(=O)N[C@H](CCCNC(=N)N)C(=O)N[C@H](CCCNC(=N)N)C(N)=O)C(C)C [wkivfdwrr] (H-[dW][dK][dI][dV][dF][dD][dW][dR][dR]-NH2) | – | not observed | – | 20 (≈ 15.3 µM) | not observed | neg (55 d) | approximately 22 days | – | – |
| CC[C@@H](C)[C@@H](NC(=O)[C@@H](CCCCN)NC(=O)[C@H](N)Cc1c[nH]c2ccccc12)C(=O)N[C@@H](C(=O)N[C@H](Cc1ccccc1)C(=O)N[C@H](CC(N)=O)C(=O)N[C@H](Cc1c[nH]c2ccccc12)C(=O)N[C@H](CCCNC(=N)N)C(=O)N[C@H](CCCNC(=N)N)C(N)=O)C(C)C [wkivfnwrr] (H-[dW][dK][dI][dV][dF][dN][dW][dR][dR]-NH2; N-terminus assumed) | – | normal | – | 20 (≈ 15.3 µM) | normal | – | – | – | – |
| NH2-wkivfiwrr-CONH2 [14D, position 6 w substituted by i, C-terminal amidated] | – | – | – | – | – | – | – | 25 | 56 |
